Measured values as given in patent US10350206B2, “Benzyl substituted indazoles as BUB1 inhibitors” (Bayer Pharma Aktiengesellschaft, priority 2014, dated 2019).

Tests used:
[1] = target: T1, catalytic domain of human Bub1 (amino acids 704-1085) (Homo sapiens, UniProt O43683); experiment: Equilibrium probe competition assay (TR-FRET kinase binding assay); settings: read-out: Assay 5 IC50
T1 construct: catalytic domain of human Bub1 (amino acids 704-1085); His6 (N); made in house; host or cells: Hi5 insect cells
Procedure: The half-life of prodrugs (Table 3) poses a challenge for the verification of their biological activity. The Bub1 enzymatic activity assay (as per Biological Assay 1.0 infra) requires a minimum reaction time of 60 minutes in order to be able to assess the inhibitory activity of the compounds. During this time typically 20% to 60% of the prodrugs have been already converted to their corresponding drugs at the pH of 7.5 at which the assay is performed. Ideally one would perform the biological assay at a pH at which the prodrug is stable (e.g. pH 4). […] Alternatively, an assay requiring shorter incubation times would better estimate the binding affinities of the prodrugs. […] Extrapolating the stability data from Tables 3 and 4, one would expect at this time point most of the compound present in the test solution to be the prodrug.
FIGS. 1 and 2 combine the results from Biological Assay 5 with those from Biological Assay 6. The binding affinities over time of drug and prodrug pairs are shown as pIC50 together with the prodrug stability, and the pIC50 to be expected if only the drug present in the sample was responsible for the activity in the assay. Extrapolating the pIC50 from these graphs to time 0 (at which 100% of prodrug is present in the sample), the actual affinity of the drug and prodrug can be inferred. Secondly, looking at the differences between expected and real pIC50 an estimate can be made about the contribution of the prodrug to the observed activity.
Biological Assay 5.0: Equilibrium Probe Competition Assay:
Bub1 binding affinity of compounds described in the present invention were quantified using a time-resolved fluorescence energy transfer (TR-FRET) kinase binding assay which measures displacement of the synthetic fluorescent probe 5-[({2-[2-({2-[1-(4-ethoxy-2,6-difluorobenzyl)-1H-indazol-3-yl]-4-(pyridin-4-ylamino)pyrimidin-5-yl}oxy)ethoxy]ethyl}carbamothioyl)amino]-2-(6-hydroxy-3-oxo-3H-xanthen-9-yl)benzoic acid (6-5-1) by the (recombinant) catalytic domain of human Bub1 (amino acids 704-1085). The enzyme was expressed in Hi5 insect cells with N-terminal 6×His/AviTag® sequences, purified by affinity- (Ni-NTA) and size exclusion chromatography and site-specific biotinylated ex-vivo using a commercially available kit (Avidity).
In a typical assay 11 different concentrations of each compound (0.1 nM, 0.33 nM, 1.1 nM, 3.8 nM, 13 nM, 44 nM, 0.15 μM, 0.51 μM, 1.7 μM, 5.9 μM and 20 μM) were tested in duplicate within the same microtiter plate. To this end, 100-fold concentrated compound solutions (in DMSO) were made by serial dilution (1:3.4) of freshly prepared 2 mM stocks in a clear low volume 384-well source microtiter plate (Greiner Bio-One, Frickenhausen, Germany), from which 50 nl of compounds were transferred into a black low volume test microtiter plate from the same supplier. Subsequently 2 μL of a solution containing biotinylated Bub1 (the final concentration of Bub1 was adjusted depending on the activity of the enzyme lot in order to be within the linear dynamic range of the assay: typically ˜[…] were used) and 1 nM Streptavidin Terbium Cryptate (Cisbio, No. 610SATLB) in aqueous assay buffer [50 mM Tris/HCl pH 7.5, 200 mM potassium chloride (KCl), 1.0 mM dithiothreitol (DTT), 0.1 mM sodium ortho-vanadate, 1% (v/v) glycerol, 0.01% (w/v) bovine serum albumine (BSA), 0.005% (v/v) Triton X-100 (Sigma), were added to the compounds in the test plate and the mixture was incubated for 15 min at 22° C. to allow pre-equilibration of the putative enzyme-inhibitor complexes before the start of the probe competition reaction, which was initiated by the addition of 3 μL 1.67-fold concentrated solution (in assay buffer) of 6-5-1 (final concentration: 1.5 nM). The resulting mixture (5 μL final volume) was incubated at 22° C. during 0, 15, 30, 60, 120, 240 and 1440 min. […]

[2] = target: T1, catalytic domain of human Bub1 (amino acids 704-1085); experiment: Bub1 kinase assay (TR-FRET); assay type: biochemical; settings: 10 μM ATP, 60 min reaction, pH 7.5; read-out: Biological Assay 1: Bub1 kinase assay median IC50

| Compound | IC50 ([1]; Time 15 min) | IC50 ([1]; Time 30 min) | IC50 ([1]; Time 60 min) | IC50 ([1]; Time 90 min) | IC50 ([1]; Time 120 min) | IC50 ([1]; Time 240 min) | IC50 ([1]; Time 1440 min) | IC50 [2] |
| --- | --- | --- | --- | --- | --- | --- | --- | --- |
| COc1cnc(-c2nn(Cc3c(F)cc(OCCO)cc3F)c3ccccc23)nc1Nc1ccnc(C)c1 [Example 2-1-2, 2-{3,5-difluoro-4-[(3-{5-methoxy-4-[(2-methylpyridin-4-yl)amino]pyrimidin-2-yl}-1H-indazol-1-yl)methyl]phenoxy}ethanol] | 1.6 nM | 3.5 nM | 2.2 nM | 3.2 nM | 2.9 nM | 4 nM | 2.4 nM | 24 nM |
| COc1cnccc1Nc1nc(-c2nn(Cc3c(F)cc(OCCO)cc3F)c3ccccc23)ncc1OC [Example 2-1-3, 2-{3,5-difluoro-4-[(3-{5-methoxy-4-[(3-methoxypyridin-4-yl)amino]pyrimidin-2-yl}-1H-indazol-1-yl)methyl]phenoxy}ethanol] | 1.7 nM | 1.3 nM | 0.9 nM | 0.54 nM | 0.49 nM | 0.31 nM | 0.2 nM | 7.1 nM |
